Source: ChEMBL document CHEMBL5608211, “Antibody-drug conjugates for targeted cancer therapy: Recent advances in potential payloads” (Eur J Med Chem, 2024)
Values after ≈ are worked out from the molar mass of the structure shown.

Legend:
Assay type in all cases: functional, cell-based
[1] = Cytotoxicity against human KPL-4 cells assessed as inhibition of cell growth incubated for 3 days by CellTiter-Glo luminescent assay; conditions: KPL4, 72 h
MOLT-4 = assay: Cytotoxicity against human MOLT-4 cells assessed as inhibition of cell growth incubated for 72 hrs by XTT assay; conditions: MOLT-4, 72 h
T47D = assay: Cytotoxicity against human T47D cells
MES-SA = assay: Cytotoxicity against human MES-SA cells assessed as inhibition of cell growth incubated for 72 hrs by CellTiter-Glo luminescent assay
LoVo = assay: Cytotoxicity against human LoVo cells assessed as inhibition of cell growth incubated for 72 hrs by Promega CellTiter-Glo assay

Structure (SMILES): C=C1C[C@H]2C=Nc3cc(OCCCCCOc4cc5c(cc4OC)C(=O)N4CC(=C)C[C@H]4C(O)N5C(=O)OCc4ccc(SSC(C)(C)C)cc4)c(OC)cc3C(=O)N2C1 (stereo not given in full)
- IC50 [1]: 6.3 ng/mL (≈ 7.35 nM)

Structure (SMILES): CCN(C(C)=O)[C@H]1CO[C@@H](O[C@H]2[C@H](O[C@H]3C#C/C=C\C#C[C@]4(O)CC(=O)C(NC(=O)OC)=C3/C4=C\CSC(C)=O)O[C@H](C)[C@@H](NO[C@H]3C[C@H](O)[C@H](SC(=O)c4c(C)c(I)c(O[C@@H]5O[C@@H](C)[C@H](O)[C@@H](OC)[C@H]5O)c(OC)c4OC)[C@@H](C)O3)[C@@H]2O)C[C@@H]1OC
- IC50 (MOLT-4): 0.00015 nM

Structure (SMILES): CC[C@H](C)[C@@H]1NC(=O)CNC(=O)[C@H]2CC(=O)[C@H]([C@@H](C)[C@@H](O)CO)NC(=O)[C@@H]3C[C@@H](O)CN3C(=O)[C@H](CC(=O)O)NC(=O)[C@H](C[S+]([O-])c3[nH]c4cc(O)ccc4c3C2)NC(=O)CNC1=O (stereo not given in full)
- IC50 (T47D): ~500 nM

Structure (SMILES): COc1c2c(c(O)c3c4c(c(C)cc13)C1O[C@@]3(C(OC)OC)OC1[C@@](O[C@H]1C[C@@H](O)[C@@](O)(C(C)=O)[C@@H](C)O1)(O4)C31CO1)C(=O)[C@@H](C)C[C@@H]2O[C@H]1C[C@@](C)(O)[C@H](OC(C)=O)[C@@H](C)O1 (stereo not given in full)
- IC50 (MES-SA): 0.74 nM

Structure (SMILES): CC(C)(C)[C@H](c1cc(-c2cc(F)ccc2F)cn1Cc1ccccc1)N(CCCN)C(=O)CO
- IC50 (LoVo): < 0.03 nM
